Laboratory results reported in patent US20220370385A1, “COMPOSITIONS FOR USE IN INHIBITING SRC KINASE AND TREATING AND PREVENTING ASSOCIATED DISORDERS” (Enzene Biosciences Ltd., priority 2019, published 2022).

System: MDA-MB-468 cells
Experiment: MDA-MB-468 cell viability, CellTiter-Glo, 24 hrs
Assay type: cell-based, human
Details: Homo sapiens, 24 hrs incubation
Experimental: MDA-MB-468 cells, isolated from a pleural effusion of a patient with metastatic adenocarcinoma of the breast, is a triple negative breast cancer (TNBC) cell line. The IC 50 value of E05 or lapatinib (Sigma) or the structural analogues of E05 were tested in this cell line.
Briefly, MDA-MB-468 cells (ATCC #HTB-32) were seeded with a density of 5,000 cells per well in a 96 well white plate (Costar Cat #3917) in DMEM media supplemented with 10% FBS (assay medium). The plates were incubated at 37° C., 5% CO2 for 24 hr. E05 and analogues were diluted in the assay medium and added to the respective wells of the assay plate. The plates were further incubated at 37° C., 5% CO2 for 24 hrs. After the incubation, the cell viability was assessed using CellTiter-Glo® and the plates were read for luminescence using Cytation 5 (Biotek). The relative luminescence unit (RLU) obtained was plotted against the concentration and EC50 values were estimated using Graphpad Prism 5 software (FIG. 15 and Table 2).

EC50: 122 µM
Compound: O=C(O)/C=C/c1ccc(O)c(O)c1 [E05_A]
